Laboratory results reported in PMC8764084, “Pantothenate biosynthesis is critical for chronic infection by the neurotropic parasite Toxoplasma gondii” (Nature Communications, 2022).

Biological target: T1, PBAL (pantoate β-alanine ligase; Pan synthetase) (Toxoplasma gondii, UniProt S8EZ77)
T1 construct: gene TGME49_265870; native full-length enzyme in live tachyzoites, untagged; about 88 kDa; nuclear; compared with pbal-ko
Experiment: LC-MS isotope labelling of pantothenate in live parasites, RH versus pbal-ko
Type: cell-based
Conditions: 0.8 mM pantoate with 0.8 mM 13C3/15N-beta-alanine, medium without Pan, 40 h, intact parasites in HFF

T1 sequence (S8EZ77 entry or part of it): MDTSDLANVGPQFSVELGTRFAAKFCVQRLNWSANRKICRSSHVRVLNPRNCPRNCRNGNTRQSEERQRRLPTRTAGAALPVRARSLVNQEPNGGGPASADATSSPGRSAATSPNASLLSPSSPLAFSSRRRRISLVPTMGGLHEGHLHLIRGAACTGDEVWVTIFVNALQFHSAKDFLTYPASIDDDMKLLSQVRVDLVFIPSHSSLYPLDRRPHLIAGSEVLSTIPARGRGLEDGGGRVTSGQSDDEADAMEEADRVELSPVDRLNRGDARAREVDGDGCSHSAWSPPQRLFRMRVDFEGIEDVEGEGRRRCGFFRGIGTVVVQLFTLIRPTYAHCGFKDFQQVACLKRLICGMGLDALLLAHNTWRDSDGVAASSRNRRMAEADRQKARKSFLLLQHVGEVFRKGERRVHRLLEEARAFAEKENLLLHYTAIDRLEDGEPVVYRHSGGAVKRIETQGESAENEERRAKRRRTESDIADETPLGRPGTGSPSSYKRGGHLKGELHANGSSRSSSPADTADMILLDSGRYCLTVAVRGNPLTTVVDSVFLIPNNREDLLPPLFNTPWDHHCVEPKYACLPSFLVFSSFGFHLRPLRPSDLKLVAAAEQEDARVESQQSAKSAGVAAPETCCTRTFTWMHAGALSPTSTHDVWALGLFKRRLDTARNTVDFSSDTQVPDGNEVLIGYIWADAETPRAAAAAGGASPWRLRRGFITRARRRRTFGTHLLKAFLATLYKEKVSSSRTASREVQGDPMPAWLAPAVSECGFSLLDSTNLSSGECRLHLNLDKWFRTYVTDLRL

| SMILES | LC-MS isotope labelling of pantothenate in live parasites, RH versus pbal-ko (labelled compound) | LC-MS isotope labelling of pantothenate in live parasites, RH versus pbal-ko |
| --- | --- | --- |
| NCCC(=O)O [13C3/15N-β-Ala] | led to the formation of labeled Pan in all strains except pbal-ko |  |
| CC(C)(CO)[C@@H](O)C(=O)O [pantoate] |  | led to the formation of labeled Pan in all strains except pbal-ko |
